From patent US12419948B2, “Immunogenic compositions and use thereof” (priority 2020, dated 2025)
Where two headings read alike, the source gives them in different places. Where no end group is shown, it is not given here.

Tests used:
Assay in all cases: biochemical
Assay type in all cases: binding
HLA-A*02:01 = target: T1, HLA-A*02:01 (Homo sapiens, UniProt P04439, D140Y/D185E/D98H/E176V/E277Q/G131W/G231S/I119V/I121R/I166T/I218V/L300P/L318F/N151K/N90K/P208A/P217A/Q86G/Q94H/R138H/R169H/T345S)
T1 construct: made in house

HLA-A*01:01 = target: T2, HLA-A*01:01 (Homo sapiens, UniProt P04439, A114D/A174V/A182V/D101N/D185E/E176A/E190D/L180R/Q94H/R68K/S129P/T187R/V100A/V91M/W191G); conditions: synthetic peptide, purified MHC
T2 construct: made in house

HLA-B*44:03 = target: T3, HLA-B*44:03 (Homo sapiens, UniProt P01889, A223V/A65T/A93T/A95T/D201E/D98Y/E176V/E187L/E204Q/E69K/G107R/H137Y/K202T/L105A/L119I/N104T/N87E/Q56L/Q94N/R106L/R155S/R180L/S101N/S121R/S35A/S48T/T118I/V36M/W191S/Y140D/Y91S); conditions: synthetic peptide, purified MHC
T3 construct: made in house

HLA-B*51:01 = target: T4, HLA-B*51:01 (Homo sapiens, UniProt P01889, A329T/A93T/A95T/C349S/D138N/D201E/D98Y/E187L/E204Q/E69T/G107R/I218V/K202T/L105A/L119W/N104I/Q94N/R106L/R155S/R180L/S101N/S121T/S35A/S48A/V306I/V36M/Y195H/Y91F); conditions: synthetic peptide, purified MHC
T4 construct: made in house

HLA-B*18:01 = target: T5, HLA-B*18:01 (Homo sapiens, UniProt P01889, A329T/A93T/A95T/C349S/D201E/D54G/D98Y/E176V/E187T/E204Q/E69T/K202T/Q94N/R155S/R180L/S121R/V306I/Y140S/Y195H/Y33H/Y91S)
T5 construct: made in house

HLA-A*26:01 = HLA-A*26:01 (Homo sapiens, UniProt P04439, A114D/A173T/A270S/D101N/D185E/E277Q/E87N/F33Y/G231S/I121R/I218V/K168Q/L180W/L300P/L318F/P208A/P217A/Q86R/Q94H/R138Q/S129P/T187R/T323A/T345S/V100A/V358M)
HLA-B*15:01 = target: T6, HLA-B*15:01 (Homo sapiens, UniProt P01889, A329T/A93T/A95T/C349S/D201E/D98Y/E187L/E204Q/E69M/E70A/K202T/N87E/Q94N/R155S/R180W/S121R/S35A/S48A/V306I/V36M/Y140S/Y91S)
T6 construct: made in house

HLA-B*44:02 = target: T7, HLA-B*44:02 (Homo sapiens, UniProt P01889, A223V/A65T/A93T/A95T/D201E/D98Y/E176V/E187L/E204Q/E69K/G107R/H137Y/K202T/L105A/L119I/N104T/N87E/Q56L/Q94N/R106L/R155S/R180D/S101N/S121R/S35A/S48T/T118I/V36M/W191S/Y140D/Y91S); conditions: synthetic peptide, purified MHC
T7 construct: made in house

[1] = read-out: Binding in vitro (IC50, [nM])

GLITLSYHL
IC50 (HLA-A*02:01; HLA allele A0201, peptide detected in HEK293T, IC50 <500 nM indicates binding, read-out: Binding in vitro (IC50, [nM])): < 0.5 nM
IC50 (HLA-A*02:01; read-out: IC50, binding to HLA-A*02:01): < 0.5 nM

APRITFGGP [Peptide 29]
IC50 (HLA-A*01:01): > 70 µM
IC50 (HLA-B*44:03): > 70 µM
IC50 (HLA-B*51:01): > 70 µM
IC50 (HLA-B*18:01): > 70000 nM
IC50 (HLA-A*26:01): > 70 µM
IC50 (HLA-B*15:01): > 70 µM
IC50 (HLA-B*44:02): > 70 µM

KNIDGYFKIY
IC50 (HLA-B*18:01; [1]): > 70000 nM

DEFVVVTV
IC50 (HLA-B*18:01; [1]): < 0.5 nM
